Converted amounts (≈) assume the structure as drawn. Read-outs that look alike come from different tables or passages of the source.
Key:
[1] = system: downy mildew pathogens of grape; experiment: Toxicity test on downy mildew pathogens of grape (disease index and control effect on whole grape plants, EC50 and co-toxicity coefficient)
[2] = system: late blight pathogens of potato; experiment: whole plant or invertebrate; assay type: in vivo
[3] = Table 6, series with fluopicolide
[4] = Table 9, series with picoxystrobin

CC(C)OC(=O)N[C@H](C(=O)N[C@H](C)c1nc2ccc(F)cc2s1)C(C)C [Benthiavalicarb-isopropyl]
EC50 [1]: 10.8 µg/mL (≈ 28.2 µM)
EC50 ([2]; Phytophthora infestans): 6.73 µg/mL (≈ 17.6 µM)

C[C@@]1(c2ccc(Oc3ccccc3)cc2)OC(=O)N(Nc2ccccc2)C1=O (racemic) [Famoxadone]
EC50 [1]: 13.8 µg/mL (≈ 36.9 µM)

OC(Cc1ccccc1Cl)(Cn1nc[nH]c1=S)C1(Cl)CC1 (stereo not drawn) [Prothioconazole]
EC50 [1]: 13.3 µg/mL (≈ 38.5 µM)

CCC(C)(NC(=O)c1cc(Cl)c(C)c(Cl)c1)C(=O)CCl (stereo not drawn) [Zoxamide]
EC50 [1]: 11.5 µg/mL (≈ 34.1 µM)
EC50 ([2]; Phytophthora infestans): 6.21 µg/mL (≈ 18.4 µM)

O=c1[nH]sc2ccccc12 [Benziothiazolinone]
EC50 ([1]; Table 1, series with benthiavalicarb-isopropyl): 8.92 µg/mL (≈ 59 µM)
EC50 ([1]; Table 2, series with zoxamide): 9.41 µg/mL (≈ 62.2 µM)
EC50 ([1]; Table 3, series with prothioconazole): 10.05 µg/mL (≈ 66.5 µM)
EC50 ([1]; Table 4, series with boscalid): 9.46 µg/mL (≈ 62.6 µM)
EC50 ([1]; Table 5, series with fenamidone): 10.59 µg/mL (≈ 70 µM)
EC50 [1, 3]: 12.17 µg/mL (≈ 80.5 µM)
EC50 ([1]; Table 7, series with famoxadone): 11.36 µg/mL (≈ 75.1 µM)
EC50 ([1]; Table 8, series with pyraclostrobin): 11.85 µg/mL (≈ 78.4 µM)
EC50 [1, 4]: 14.18 µg/mL (≈ 93.8 µM)
EC50 ([2]; Table 11, series with pyraclostrobin): 6.89 µg/mL (≈ 45.6 µM)
EC50 ([2]; Table 12, series with boscalid): 5.58 µg/mL (≈ 36.9 µM)
EC50 ([2]; Table 13, series with benthiavalicarb-isopropyl): 6.22 µg/mL (≈ 41.1 µM)
EC50 ([2]; Table 14, series with zoxamide): 5.89 µg/mL (≈ 39 µM)
EC50 ([2]; Table 15, series with fenamidone): 6.12 µg/mL (≈ 40.5 µM)

COC(=O)N(OC)c1ccccc1COc1ccn(-c2ccc(Cl)cc2)n1 [pyraclostrobin]
EC50 [1]: 10.7 µg/mL (≈ 27.6 µM)
EC50 ([2]; Phytophthora infestans): 5.28 µg/mL (≈ 13.6 µM)

Cl.O=c1[nH]sc2ccccc12 [Benziothiazolinone hydrochloride]
EC50 ([1]; Table 10, series with fluazinam): 12.87 µg/mL

O=C(NCc1ncc(C(F)(F)F)cc1Cl)c1c(Cl)cccc1Cl [Fluopicolide]
EC50 [1, 3]: 15.32 µg/mL (≈ 39.9 µM)

O=[N+]([O-])c1cc(C(F)(F)F)c(Cl)c([N+](=O)[O-])c1Nc1ncc(C(F)(F)F)cc1Cl [Fluazinam]
EC50 [1]: 11.2 µg/mL (≈ 24.2 µM)

O=C(Nc1ccccc1-c1ccc(Cl)cc1)c1cccnc1Cl [Boscalid]
EC50 [1]: 11.6 µg/mL (≈ 33.8 µM)
EC50 ([2]; Phytophthora infestans): 6.31 µg/mL (≈ 18.4 µM)

CO/C=C(/C(=O)OC)c1ccccc1COc1cccc(C(F)(F)F)n1 [Picoxystrobin]
EC50 [1, 4]: 15.31 µg/mL (≈ 41.7 µM)

CSC1=N[C@@](C)(c2ccccc2)C(=O)N1Nc1ccccc1 [Fenamidone]
EC50 [1]: 12.8 µg/mL (≈ 41 µM)
EC50 ([2]; Phytophthora infestans): 6.58 µg/mL (≈ 21.1 µM)

Source: patent US10561143B2, “Fungicidal composition having synergistic effect” (JIANGSU HUIFENG AGROCHEMICAL CO., LTD., priority 2013, dated 2020)
